In ChEMBL document CHEMBL1201862, “PubChem BioAssay data set” (2004) one finds EC50, AC50 and IC50 data, which are given here for 47 compounds.

A short description of data set [1]: inhibitors of firefly luciferase expression or activity, dose response, H4 neuroglioma cells, luminescence (AID 1990). Format: functional, cell-based.
Data set [2] is described as follows: Luminescence Cell-Based Dose Response HTS to Identify Inhibitors of 5'UTR Stem-Loop Driven Prion Protein mRNA Translation in H4 Neuroglioblastoma Cells. [Related pubchem assays: 1827 (Project Summary), 1813 (Primary HTS)]. The format is functional.
Data set [3] can be described thus: inhibitors of SNCA 5'UTR-driven reporter translation, confirmation, H4 neuroglioma cells, luminescence (AID 1988). The format is functional, cell-based.
For data set [4], the target named is Cytochrome P450 2D6 (Homo sapiens, UniProt P10635).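 Note: CYP2D6 member of a cytochrome P450 panel assay.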
Data set [5] deals with Cytochrome P450 3A4 (Homo sapiens, UniProt P08684).
Data set [6] has as its target T1, Protein skinhead-1 (Caenorhabditis elegans, UniProt P34707).
T1 sequence (P34707 whole entry): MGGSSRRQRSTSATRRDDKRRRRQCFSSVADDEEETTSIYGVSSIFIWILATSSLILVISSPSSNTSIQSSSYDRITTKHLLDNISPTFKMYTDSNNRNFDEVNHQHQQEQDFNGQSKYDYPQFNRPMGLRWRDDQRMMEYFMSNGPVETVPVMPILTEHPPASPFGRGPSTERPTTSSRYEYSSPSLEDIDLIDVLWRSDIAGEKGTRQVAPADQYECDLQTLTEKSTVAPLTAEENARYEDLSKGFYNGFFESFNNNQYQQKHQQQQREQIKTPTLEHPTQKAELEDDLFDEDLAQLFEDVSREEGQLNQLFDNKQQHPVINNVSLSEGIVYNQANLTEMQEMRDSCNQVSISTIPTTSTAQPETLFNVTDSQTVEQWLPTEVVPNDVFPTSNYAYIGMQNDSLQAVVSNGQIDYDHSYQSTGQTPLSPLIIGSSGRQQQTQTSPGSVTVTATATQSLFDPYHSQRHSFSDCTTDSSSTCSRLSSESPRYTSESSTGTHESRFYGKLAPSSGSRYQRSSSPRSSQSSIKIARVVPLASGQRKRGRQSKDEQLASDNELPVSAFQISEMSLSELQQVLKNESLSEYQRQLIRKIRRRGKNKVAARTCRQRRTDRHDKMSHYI
Format: functional.

Data set [7] concerns the target T2, Cytochrome P450 1A2 (Homo sapiens, UniProt P05177).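 Note: PubChem cytochrome P450 panel assay, CYP1A2 panel member.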
T2 sequence (P05177 whole entry): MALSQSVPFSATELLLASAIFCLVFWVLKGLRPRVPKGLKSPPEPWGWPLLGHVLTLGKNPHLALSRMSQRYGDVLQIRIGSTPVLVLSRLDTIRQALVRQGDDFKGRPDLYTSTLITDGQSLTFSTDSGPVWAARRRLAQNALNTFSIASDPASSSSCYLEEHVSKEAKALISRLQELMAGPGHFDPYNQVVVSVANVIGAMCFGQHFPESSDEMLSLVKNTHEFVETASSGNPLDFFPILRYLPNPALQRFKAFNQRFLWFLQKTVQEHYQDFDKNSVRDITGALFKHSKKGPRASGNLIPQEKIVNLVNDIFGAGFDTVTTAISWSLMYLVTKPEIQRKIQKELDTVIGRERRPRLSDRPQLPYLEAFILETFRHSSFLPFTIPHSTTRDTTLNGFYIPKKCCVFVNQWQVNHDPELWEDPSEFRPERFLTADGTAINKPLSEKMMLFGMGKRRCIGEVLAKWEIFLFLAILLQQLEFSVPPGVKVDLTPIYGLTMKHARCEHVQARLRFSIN

In data set [8] the target is Cytochrome P450 2C9 (Homo sapiens, UniProt P11712).
For data set [9], the target named is Cytochrome P450 2C19 (Homo sapiens, UniProt P33261). The experiment in a line: Cytochrome panel assay with activity outcomes. Panel member name: p450-cyp2c19 Compounds with AC50 equal or less than 10 uM are considered active. Format: functional.
Data set [10] in a line: Luminescence Cell-Based Dose Retest to Confirm Inhibitors of Cancer Stem Cells. [Related pubchem assays (depositor defined):AID2717, AID2721]. Format: functional. Particulars: Homo sapiens.
A short description of data set [11]: NIH-3T3 fibroblast cytotoxicity, dose response, cytotoxicity control, cell-based, fluorescence, Alamar Blue, secondary assay (AID 2327).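 Note: NIH-3T3 mouse fibroblasts cultured with fluconazole at 8 µg/mL.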 Format: functional. For orientation: Resazurin is reduced to fluorescent resorufin, in cell work by metabolically active cells.

“And” between values parts separate entries of the source, which are not always exact repeats. Equal entries are not always repeated. The source made the active and inactive calls.

Cytochrome P450 3A4, sequence (P08684 whole entry): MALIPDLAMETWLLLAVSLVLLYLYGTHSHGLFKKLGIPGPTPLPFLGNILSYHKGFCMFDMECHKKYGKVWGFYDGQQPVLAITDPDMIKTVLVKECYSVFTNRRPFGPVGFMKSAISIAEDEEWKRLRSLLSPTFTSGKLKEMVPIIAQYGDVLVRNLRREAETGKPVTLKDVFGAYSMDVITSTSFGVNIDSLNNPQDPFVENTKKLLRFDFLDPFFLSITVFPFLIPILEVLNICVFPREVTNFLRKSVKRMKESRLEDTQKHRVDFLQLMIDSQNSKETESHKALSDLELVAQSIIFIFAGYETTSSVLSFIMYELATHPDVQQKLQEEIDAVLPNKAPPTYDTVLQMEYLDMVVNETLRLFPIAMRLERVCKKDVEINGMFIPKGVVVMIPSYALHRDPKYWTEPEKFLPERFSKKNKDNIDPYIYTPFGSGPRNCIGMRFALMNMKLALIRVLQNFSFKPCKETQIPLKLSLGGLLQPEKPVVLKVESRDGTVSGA
Cytochrome P450 2C9, sequence (P11712 whole entry): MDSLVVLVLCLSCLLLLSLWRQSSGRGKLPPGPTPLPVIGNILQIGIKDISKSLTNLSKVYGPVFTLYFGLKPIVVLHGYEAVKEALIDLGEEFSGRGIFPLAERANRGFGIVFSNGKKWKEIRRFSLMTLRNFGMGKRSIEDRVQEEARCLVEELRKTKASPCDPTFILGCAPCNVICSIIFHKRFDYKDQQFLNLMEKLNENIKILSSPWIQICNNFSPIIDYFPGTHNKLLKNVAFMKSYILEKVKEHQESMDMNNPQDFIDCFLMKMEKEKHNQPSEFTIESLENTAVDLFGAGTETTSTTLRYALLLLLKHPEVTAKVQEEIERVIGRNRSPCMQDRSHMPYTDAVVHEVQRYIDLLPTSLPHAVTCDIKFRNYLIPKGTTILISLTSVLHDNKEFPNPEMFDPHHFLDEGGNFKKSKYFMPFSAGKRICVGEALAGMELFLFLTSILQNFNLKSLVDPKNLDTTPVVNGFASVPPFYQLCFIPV
Cytochrome P450 2C19, sequence (P33261 whole entry): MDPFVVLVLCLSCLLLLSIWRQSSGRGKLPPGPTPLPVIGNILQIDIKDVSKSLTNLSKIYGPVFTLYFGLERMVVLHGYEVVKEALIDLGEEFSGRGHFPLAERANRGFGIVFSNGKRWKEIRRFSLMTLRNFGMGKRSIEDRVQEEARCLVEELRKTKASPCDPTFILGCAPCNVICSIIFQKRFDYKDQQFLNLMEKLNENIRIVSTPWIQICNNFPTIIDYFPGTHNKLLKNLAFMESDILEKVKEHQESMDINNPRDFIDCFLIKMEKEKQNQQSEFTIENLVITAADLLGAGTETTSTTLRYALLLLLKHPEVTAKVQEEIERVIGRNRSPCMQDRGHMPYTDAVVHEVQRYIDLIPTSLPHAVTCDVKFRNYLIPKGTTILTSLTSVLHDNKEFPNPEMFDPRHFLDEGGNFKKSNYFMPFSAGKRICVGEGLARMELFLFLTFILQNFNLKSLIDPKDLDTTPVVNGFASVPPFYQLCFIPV
Cytochrome P450 2D6, sequence (P10635 whole entry): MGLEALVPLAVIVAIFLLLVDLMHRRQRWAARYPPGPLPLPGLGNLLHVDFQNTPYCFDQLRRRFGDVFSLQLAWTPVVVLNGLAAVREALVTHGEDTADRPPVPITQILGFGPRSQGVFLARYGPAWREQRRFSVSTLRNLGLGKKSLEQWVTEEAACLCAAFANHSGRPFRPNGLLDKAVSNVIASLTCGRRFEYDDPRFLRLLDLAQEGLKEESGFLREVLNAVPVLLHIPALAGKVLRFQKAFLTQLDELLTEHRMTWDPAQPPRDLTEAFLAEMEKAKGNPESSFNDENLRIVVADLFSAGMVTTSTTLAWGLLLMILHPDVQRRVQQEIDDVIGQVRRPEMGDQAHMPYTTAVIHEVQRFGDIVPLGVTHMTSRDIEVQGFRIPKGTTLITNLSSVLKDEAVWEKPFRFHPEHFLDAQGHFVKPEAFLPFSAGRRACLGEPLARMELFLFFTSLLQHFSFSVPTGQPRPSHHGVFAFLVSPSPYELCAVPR

As for `Cc1ccc(CSc2nc3c(c(=O)[nH]c(=O)n3C)n2CCC(C)C)cc1`, the values for the EC50 in [1], in [2] and in data set [3] were 24.8 µM (active), 19.4 µM (active) and 16.2 µM (active), respectively.
Consider `c1ccc(CN2CC[C@@]3(CCCNC3)C2)cc1`, for which the AC50 – broadly, the concentration at which the activity in the assay is half-maximal – in [4] was 15.8 µM (inconclusive); in data set [5], 10 µM (inconclusive).
Consider `O=C(NCc1nnc(S)n1-c1ccc(F)cc1)c1ccc(S(=O)(=O)N2CCOCC2)cc1`, for which the IC50 (usually the concentration that gives 50% inhibition) in data set [6] is > 100 µM (inactive).
Take `O=C(OCCN1CCOCC1)C1(c2ccccc2)CCCCC1`: the concentration at half-maximal activity (AC50) in data set [7] was 31.6 µM (inconclusive); in data set [8] it was 10 µM (inconclusive) and 15.8 µM (inconclusive); in data set [9] (read-out: AC50), 6.31 µM (inconclusive) and 10 µM (inconclusive); in data set [4], 12.6 µM (inconclusive) and 6.31 µM (inconclusive).
For `O=C(COC(=O)c1cccc(S(=O)(=O)N2CCOCC2)c1)Nc1nc(-c2ccccc2Cl)cs1`, the AC50 was 8.91 µM (inconclusive) in data set [7] and 11.2 µM (inconclusive) in [5].
On to `COC(=O)C/C=C\[C@@H](C)[C@@H](/C=N\OC[C@@H](C)[C@H](OCc1ccccc1)C(C)C)OC`, for which the concentration at half-maximal activity (AC50) is 3.16 µM (inconclusive) in [8], 2 µM (inconclusive) in data set [9] (read-out: AC50) and 3.16 µM (inconclusive) in data set [5].
In the case of `O=C(Cn1c(-c2cscn2)nc2ccccc21)Nc1cc(F)ccc1F`, the AC50 in data set [4] was 22.4 µM (inconclusive).
Same read-out and setting: then `Cc1ccc(-c2nnc(S)n2/N=C/c2cccn2C)cc1`, with 5.01 µM (inconclusive).
As to `CC(=O)Nc1nnc(CCN2CCCCC2)s1`, the figures for the AC50 result in data set [9] and in [4] were “inconclusive” and 1.26 µM (inconclusive), respectively.
For the compound `CCOc1c2ccc(C(=O)NCc3ccc(OC(F)(F)F)cc3)cc2nn1CC`, the AC50 was 14.1 µM (inconclusive) in [7], 39.8 µM (inconclusive) in [8], 39.8 µM (inconclusive) in [9] (read-out: AC50) and 25.1 µM (inconclusive) in [4].
In the case of `CN(Cc1ccc(-n2cccn2)cc1)C(=O)c1cnn2c1NC(c1ccco1)CC2C(F)(F)F` (configuration not stated), the EC50 (in general, the concentration giving half of the maximal effect) in data set [1] is > 120 µM (not active); in data set [2], > 120 µM (not active); in data set [3], 31.5 µM (active).
As to `CCC1=NN(C(=O)c2ccc(Cl)cc2)C(O)(c2ccc(C)cc2)C1` (configuration not stated), the AC50 in data set [10] is 4.64 µM (active).
In the case of `Cn1cccc1C(=O)N1CCC2(CCCN(Cc3ccc(C#N)cc3)C2)CC1`, the AC50 in [7] was 12.6 µM (inconclusive); in [5] it was 15.8 µM (inconclusive).
With `Brc1ccc(CSc2nnc(-c3cccnc3)o2)cc1`, in data set [6], the IC50 was 54.5 µM (inactive).
`Cc1cnc(CNc2ncnc3ccc(-c4ccccc4C(F)(F)F)cc23)cn1`: the half-maximal activity concentration (AC50) was 20 µM (inconclusive) in [9] (read-out: AC50) and 25.1 µM (inconclusive) in data set [4].
For the compound `COc1cccc(Nc2ncc3nc(-c4cn(C)c5ccccc45)c(=O)n(CCC#N)c3n2)c1`, the AC50 in data set [7] is 20 µM (inconclusive); in data set [5], 1.58 µM (inconclusive).
With `CC1(C)C[C@H](O)[C@]2(CO)[C@H](O)C[C@]3(C)C(=CCC4[C@@]5(C)CC[C@H](O)C(C)(C)C5CC[C@]43C)[C@@H]2C1` (some centres not stated), the half-maximal activity concentration (AC50) in data set [10] is 1.97 µM (active).
Consider `c1ccc(CSc2nnc(-c3cccs3)o2)cc1`, for which the IC50 in [6] is 30.2 µM (active).
For `Nc1nnnn1CCO`, in data set [7], the AC50 was 6.31 µM (inconclusive).
As to `COc1ccc(C(=O)N2CCC3(CC2)CN(Cc2ccc(C#N)cc2)C3)cc1`, the AC50 in data set [4] was 12.6 µM (inconclusive); in data set [5], 0.631 µM (inconclusive).
Turning to `Cc1ccc(S(=O)(=O)N2CCCC(C(=O)NCCCN3CCCCC3C)C2)cc1` (configuration not stated), the AC50 entry was “inconclusive” in data set [9] and 17.8 µM (inconclusive) in [4].
As for `COc1cc(C(=O)N/N=C(\Cc2ncc[nH]2)c2ccccc2)cc(OC)c1OC`, the concentration at half-maximal activity (AC50) in [10] was 2.89 µM (active).
For `O=C(COC(=O)c1cccnc1Cl)c1ccccc1`, the AC50 in [8] is 17.8 µM (inconclusive); in data set [9] (read-out: AC50), 39.8 µM (inconclusive).
As for `COC(=O)CCC(=O)NNC(=O)c1ccc(Br)cc1`, the AC50 in [7] is 11.2 µM (inconclusive).
On to `CN(C)c1ccc(/N=C/c2cccn2C)cc1`, for which the EC50 in data set [11] was 25.9 µM (active).
Regarding `COc1ccc(CC2SC(N/N=C/c3ccccc3O)=NC2=O)cc1` (configuration not stated), the AC50 in [10] was 8.79 µM (active).
With `O=C(CSc1c[nH]c2ccccc12)N1CCOCC1`, the AC50 in data set [7] was 17.8 µM (inconclusive).
Consider `Cc1nn(-c2ccccc2)c2nc(N)c(C#N)c(-c3ccc(C(C)(C)C)cc3)c12`, for which, in [10], the AC50 is 2.14 µM (active).
Consider `CCN(CC)S(=O)(=O)c1cccc(-c2nnc(SCC(=O)c3cc(C)n(C4CC4)c3C)o2)c1`, for which the IC50 in data set [6] was > 100 µM (inactive).
In the case of `COc1ccc(OC)c(-c2csc(N(CC3CCCO3)C(=O)C3CCCCC3)n2)c1` (configuration not stated), the AC50 in data set [10] is 3.5 µM (active).
As for `CCNc1ncc2nc(-c3cccc(C#N)c3)c(=O)n(C)c2n1`, the AC50 was 2 µM (inconclusive) in data set [4] and 31.6 µM (inconclusive) in data set [5].
Regarding `O=C(NC1(C(F)(F)F)NC(=O)N(Cc2cccnc2)C1=O)c1ccccc1` (configuration not stated), the 50% effective concentration (EC50) in data set [1], in data set [2] and in data set [3] was > 120 µM (not active) in each case. For the same compound, the results for the AC50 in data set [8] and in data set [5] were 17.8 µM (inconclusive) and 0.891 µM (inconclusive), respectively.
With `Cc1ccc(C(=O)Nc2ccc(C(=O)/C=C/c3cccs3)cc2)cc1`, the AC50 in data set [8] was 11.2 µM (inconclusive); in [9] (read-out: AC50) it was 7.08 µM (inconclusive); in data set [5] it was 5.01 µM (inconclusive).
As for `O=C(NCC1CCCO1)c1nn2c(c1Cl)NC(c1ccc(F)cc1)CC2C(F)(F)F` (configuration not stated), the half-maximal activity concentration (AC50) in data set [7] is 12.6 µM (inconclusive); in data set [5], 14.1 µM (inconclusive).
As for `Cc1cc(C(=O)Nc2nc3c(s2)CCCC3)cs1`, the AC50 in data set [10] was 1.97 µM (active).
Take `O=C1C=CC(=O)c2c1ccc1c2ccc2ccccc21`: the half-maximal activity concentration (AC50) in data set [4] is 5.01 µM (inconclusive).
Consider `Cc1ccccc1-c1cncnc1Nc1ccccc1`, for which the concentration at half-maximal activity (AC50) in data set [4] is 39.8 µM (inconclusive).
On to `C[C@H](N)C1CCC(C(=O)Nc2ccncc2)CC1` (some centres not stated), for which the AC50 in data set [4] and in [5] was 15.8 µM (inconclusive) throughout.
`N#Cc1ccccc1-c1ccc2ncnc(NCc3cccs3)c2c1`: the AC50 was 1 µM (inconclusive) in data set [8] and 39.8 µM (inconclusive) in data set [9] (read-out: AC50).
For the compound `Cc1ccc(-c2csc(NCCn3c(-c4ccncc4)nc4cc(C(F)(F)F)ccc43)n2)cc1`, the AC50 in data set [10] was 8 µM (active).
Take `O=C(CSc1nnnn1-c1ccccc1)NCc1cccs1`: the AC50 in data set [7] is 31.6 µM (inconclusive).
For the compound `O=C(Nc1ccccc1N1CCOCC1)c1ccc(S(=O)(=O)NCc2ccco2)cc1`, the EC50 in data set [11] was > 150 µM (inactive).
As to `CC(=O)OC1N=C(c2ccccc2)c2cc(Br)ccc2N(C)C1=O` (configuration not stated), the AC50 was 17.8 µM (inconclusive) in [8] and 39.8 µM (inconclusive) in [9] (read-out: AC50).
For the compound `CC(=O)N1CCC2(CCCN(Cc3cc(C(F)(F)F)cc(C(F)(F)F)c3)C2)CC1`, the AC50 in data set [4] is 39.8 µM (inconclusive); in [5], 15.8 µM (inconclusive).
Consider `O=C1COc2ccc(OCc3ccc(F)cc3)cc21`, for which the AC50 in [7] is 7.08 µM (inconclusive).
With `CCN1C(=O)/C(=C\c2ccncc2)S/C1=N\c1ccc(C)c(C)c1`, the AC50 in [10] was 3.77 µM (active).
On to `N#C/C=C1\n2c(nc3ccccc32)OC12CCCCC2`, for which the EC50 in data set [1], in [2] and in [3] was > 120 µM (not active) in each case.
